Test results: patent publication US20220339243A1, “COMPOSITIONS AND SYNERGISTIC METHODS FOR TREATING INFECTIONS” (BioAegis Therapeutics Inc., priority 2019, published 2022)
Converted amounts (≈) assume the structure as drawn. Blank lines part the entries; values can stand above or below the molecule they belong to.

Experiments:
[1] = system: P. aeruginosa UNC-D; experiment: Minimum inhibitory concentrations of the UNC-D strain; assay type: cell-based; conditions: for MIC: Pseudomonas aeruginosa, read-out: Minimum inhibitory concentration
Protocol: P. aeruginosa UNC-D is a sputum isolate from a patient with cystic fibrosis. [Lawrenz M B, et al. Pathog. Dis. 73 (2015)]. Bacteria were cultured on trypticase soy agar (TSA) plates and in Lennox broth at 37° C. with shaking of broth cultures. […] Bacteria were prepared for animal challenge studies by culturing bacteria in Lennox broth overnight and washing the bacteria into 1×PBS before diluting to a final concentration based on OD600-based estimates and a final 50 μl delivery dose. Bacterial inocula were confirmed by serial dilution and colony enumeration on TSA plates.

[2] = system: S. pneumoniae isolates; conditions: pediatric population; Cai et al. 2018; cited from earlier work
[3] = system: P. aeruginosa UNC-D; experiment: Multidrug-resistant P. aeruginosa pneumonia in neutropenic BALB/c mice; assay type: in vivo
[4] = system: Streptococcus pneumoniae type 14; experiment: Antibiotic-resistant pneumococcal pneumonia, CD1 mice, delayed treatment; assay type: in vivo
[5] = system: Streptococcus pneumoniae type 3; experiment: Antibiotic-sensitive pneumococcal pneumonia, CD1 mice, delayed treatment; assay type: in vivo; conditions: PEN 100 μg i.m. on days 2 and 3 after infection; FIG. 3B
[6] = system: Streptococcus pneumoniae type 14; experiment: In vitro bacterial growth, 1 h culture; assay type: cell-based; conditions: PEN 16 μg/ml, pGSN 250 μg/ml, average of 2 replicates
[7] = system: Streptococcus pneumoniae type 14; conditions: cited from earlier work

MIC [1]: 4 µg/mL (≈ 9.19 µM)
Molecule: C[C@H]1[C@H](NC(=O)/C(=N\OC(C)(C)C(=O)O)c2csc(N)n2)C(=O)N1S(=O)(=O)O [aztreonam]

MIC [1]: 32 µg/mL (≈ 58.5 µM)
Molecule: CC(C)(O/N=C(\C(=O)N[C@@H]1C(=O)N2C(C(=O)[O-])=C(C[n+]3ccccc3)CS[C@H]12)c1csc(N)n1)C(=O)O [ceftazidime]

Molecule: CC[C@H]1OC(=O)[C@H](C)[C@@H](O[C@H]2C[C@@](C)(OC)[C@@H](O)[C@H](C)O2)[C@H](C)[C@@H](O[C@@H]2O[C@H](C)C[C@H](N(C)C)[C@H]2O)[C@](C)(O)C[C@@H](C)C(=O)[C@H](C)[C@@H](O)[C@]1(C)O [erythromycin]
resistance of S. pneumoniae isolates from invasive infections [2]: 96%

MIC [1]: 256 µg/mL (≈ 1850 µM)
Molecule: C[C@@H]1O[C@@H]1P(=O)(O)O [fosfomycin]

MIC [1]: 16 µg/mL (≈ 53.4 µM)
Molecule: C[C@@H](O)[C@H]1C(=O)N2C(C(=O)O)=C(SCCN=CN)C[C@H]12 [imipenem]

Molecule: C[C@@H](O)[C@H]1C(=O)N2C(C(=O)O)=C(S[C@@H]3CN[C@H](C(=O)N(C)C)C3)[C@H](C)[C@H]12 [meropenem]
survival in each of experiments 1 and 2 ([3]; 1250 mg/kg/day of meropenem): ≤ 50%
mean pathology score (lung, maximum 16) ([3]; 1250 mg/kg/day, two independent studies combined, FIG. 9C, p=0.0049): 6.86
near-normal lung histopathology, surviving mice as the denominator ([3]; 26/35 vs 38/46): 74.3%
overall survival, all dosing groups in the 3 experiments combined ([3]; 35/64 without and 46/64 with rhu-pGSN): 55%
overall survival with minor lung injury (pathology scores ≤2) ([3]; all meropenem doses, three experiments, 26/64 vs 38/64, FIG. 10): 41%
spread to spleen / splenic counts ([3]; both studies, combined data, pGSN given with meropenem): controlled spread from lung to spleen
survival, third experiment ([3]; different lot of meropenem, meropenem only group): 75%
survival with near-normal lungs, control survival rate between 25% and 75% ([3]; exploratory post-hoc analysis, 12/32 vs 27/32): 37.5%
survival for 7 days, two sequential studies combined ([3]; meropenem 1250 mg/kg/day s.c. q8h 5 days, rhu-pGSN 12 mg/day i.p. days -1 to +5, FIG. 7C): 31%
time to restoration of body temperature to 95° F. in survivors ([3]; two studies with survival advantage, FIG. 11): 3-5 days post-infection
MIC [1]: 8 µg/mL (≈ 20.9 µM)

MIC [1]: 16 µg/mL (≈ 30.9 µM)
Molecule: CCN1CCN(C(=O)N[C@@H](C(=O)N[C@@H]2C(=O)N3[C@@H]2SC(C)(C)[C@@H]3C(=O)O)c2ccccc2)C(=O)C1=O [piperacillin]

MIC [1]: 32 µg/mL (≈ 68.4 µM)
Molecule: NC[C@H]1O[C@H](O[C@H]2[C@H](O)[C@@H](O[C@H]3O[C@H](CO)[C@@H](O)[C@H](N)[C@H]3O)[C@H](N)C[C@@H]2N)[C@H](N)C[C@@H]1O [tobramycin]

Molecule: colistin
Minimum inhibitory concentration [1]: 1 µg/mL

Molecule: penicillin
total lavage neutrophils ([4]; lung lavage 48 hours after infection, single dose, n=5-6/group): 153±74 ×10E4
survival (final four experiments) ([4]; treatment from 24 h after infection, daily for 9 days, pGSN 5 mg i.p., PEN 1 mg i.m., FIG. 4A): no benefit
survival [5]: 100%
increase in bacterial CFU [6]: 105000 CFU
minimum inhibitory concentration (MIC) [7]: 8 µg/mL

Molecule: trimethoprim-sulfamethoxazole
resistance of S. pneumoniae isolates from invasive infections [2]: 79%
